Target: T1, TdHKT1;4-2 (Triticum turgidum, UniProt U5YMY4)
T1 construct: full-length coding region (ORF 1686 bp, 562 residues as printed) in pGEMXho, cRNA expressed in Xenopus laevis oocytes
T1 sequence (U5YMY4 1-561): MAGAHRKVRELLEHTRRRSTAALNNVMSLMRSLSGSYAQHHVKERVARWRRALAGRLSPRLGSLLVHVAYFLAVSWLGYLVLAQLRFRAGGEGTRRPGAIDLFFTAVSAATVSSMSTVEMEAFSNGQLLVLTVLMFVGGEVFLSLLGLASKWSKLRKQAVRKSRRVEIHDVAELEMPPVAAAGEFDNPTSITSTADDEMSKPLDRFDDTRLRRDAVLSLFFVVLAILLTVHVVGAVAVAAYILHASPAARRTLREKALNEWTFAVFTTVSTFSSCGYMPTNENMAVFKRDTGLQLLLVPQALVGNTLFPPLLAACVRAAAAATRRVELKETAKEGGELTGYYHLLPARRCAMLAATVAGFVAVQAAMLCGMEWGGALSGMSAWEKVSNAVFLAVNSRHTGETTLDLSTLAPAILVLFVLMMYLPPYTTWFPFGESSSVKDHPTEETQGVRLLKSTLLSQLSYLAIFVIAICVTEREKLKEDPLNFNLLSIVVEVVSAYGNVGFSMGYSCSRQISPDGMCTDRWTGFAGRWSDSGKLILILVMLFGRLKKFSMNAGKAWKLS
Experiment: two-electrode voltage clamp, Xenopus oocytes
Format: cell-based
Conditions: 500 µM quinine; 1 mM external Na+ (glutamate salt); pH 5.5; inward and outward currents

C=C[C@H]1CN2CC[C@H]1C[C@H]2[C@H](O)c1ccnc2ccc(OC)cc12 [quinine]
% decrease of currents at 500 μM: ~ 25%
